Legend:
[1] = molecular target: T1, LR34res (Triticum aestivum, UniProt A0A9R1MFS8); test: competition of 3H-ABA uptake in LR34res-expressing yeast; assay type: cell-based; settings: 50 nM labelled and unlabelled ABA mixture, 10 min, pH 6.3; competition for substrate binding suggested, not proven
T1 construct: gene CFC21_107174; full-length cDNA from p6U:cLr34res, C-terminal HA tag, in pNEV-N; expressed in Saccharomyces cerevisiae W303 and YMM12; predicted c; 160 kDa
T1 sequence (A0A9R1MFS8 1-1401): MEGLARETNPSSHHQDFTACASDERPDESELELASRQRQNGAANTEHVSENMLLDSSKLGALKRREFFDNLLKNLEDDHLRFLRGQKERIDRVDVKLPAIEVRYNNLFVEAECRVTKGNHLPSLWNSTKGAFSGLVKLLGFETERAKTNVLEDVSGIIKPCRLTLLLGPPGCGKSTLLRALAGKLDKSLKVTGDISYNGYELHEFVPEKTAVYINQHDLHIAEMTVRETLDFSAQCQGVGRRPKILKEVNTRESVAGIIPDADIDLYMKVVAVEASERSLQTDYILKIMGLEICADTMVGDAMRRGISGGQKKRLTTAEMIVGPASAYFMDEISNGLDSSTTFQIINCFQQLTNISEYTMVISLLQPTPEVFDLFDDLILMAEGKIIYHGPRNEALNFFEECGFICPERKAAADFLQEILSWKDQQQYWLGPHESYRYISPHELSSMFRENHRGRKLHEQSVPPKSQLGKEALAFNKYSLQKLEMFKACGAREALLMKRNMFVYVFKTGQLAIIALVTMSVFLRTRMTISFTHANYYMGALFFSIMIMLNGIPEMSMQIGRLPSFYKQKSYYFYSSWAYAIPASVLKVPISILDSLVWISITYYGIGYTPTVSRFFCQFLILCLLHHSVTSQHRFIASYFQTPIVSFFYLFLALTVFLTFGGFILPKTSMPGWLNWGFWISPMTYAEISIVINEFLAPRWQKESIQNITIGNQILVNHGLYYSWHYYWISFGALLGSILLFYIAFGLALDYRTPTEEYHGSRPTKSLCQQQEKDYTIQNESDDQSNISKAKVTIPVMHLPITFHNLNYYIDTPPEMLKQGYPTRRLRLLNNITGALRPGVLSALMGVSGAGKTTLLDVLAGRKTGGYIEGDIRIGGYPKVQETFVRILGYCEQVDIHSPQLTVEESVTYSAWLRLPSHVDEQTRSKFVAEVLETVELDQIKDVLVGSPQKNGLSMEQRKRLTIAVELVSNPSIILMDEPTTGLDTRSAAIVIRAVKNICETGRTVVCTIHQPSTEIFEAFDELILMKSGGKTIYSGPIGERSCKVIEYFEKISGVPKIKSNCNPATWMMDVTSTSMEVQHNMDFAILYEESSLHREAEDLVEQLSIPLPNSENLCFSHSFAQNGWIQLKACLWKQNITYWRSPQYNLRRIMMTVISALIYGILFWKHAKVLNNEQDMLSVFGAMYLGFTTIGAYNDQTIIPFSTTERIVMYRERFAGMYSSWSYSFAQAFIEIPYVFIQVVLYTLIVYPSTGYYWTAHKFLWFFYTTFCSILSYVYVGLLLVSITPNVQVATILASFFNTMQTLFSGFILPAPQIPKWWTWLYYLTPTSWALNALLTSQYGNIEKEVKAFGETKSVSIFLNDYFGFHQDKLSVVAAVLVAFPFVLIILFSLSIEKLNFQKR

[2] = molecular target: T1, LR34res; test: inhibition of 3H-ABA uptake in yeast YMM12; assay type: cell-based; settings: 20 min preincubation, then 10 min with labelled ABA; general ABC transporter inhibitor; allele in this panel not stated, taken as LR34res

SMILES | % reduction of 3H-ABA uptake at 3 μM [1] | relative 3H-ABA accumulation (% of control) [2]
C=C[C@](C)(O)CC[C@@H]1[C@@]2(C)CCCC(C)(C)[C@@H]2CC[C@@]1(C)O [sclareol] | ~ 40% | –
COc1ccc(Cl)cc1C(=O)NCCc1ccc(S(=O)(=O)NC(=O)NC2CCCCC2)cc1 [glibenclamide] | – | The ABC transporter inhibitor glibenclamide
